Reference: patent US8716250B2, “Diazoxide for the treatment of Friedreich's ataxia” (Universita' Degli Studi di Bari, priority 2008, dated 2014)
“Also recorded” adds a separate entry of the source.

What was measured:
frataxin [1] = experiment: Quantitative real-time RT-PCR of frataxin expression in HEK 293 cells; format: cell-based, human
Experimental: The human cell line HEK 293 (Human Embryonic Kidney) grown in Dulbecco's modified Eagle's medium (DMEM, Sigma) with the addition of 10% foetal bovine serum (FBS) (v/v), glutamine 2 mM, penicillin 100 unit/ml and streptomycin 100 μg/ml is kept in an incubator at a temperature of 37° C. and 5% CO2. Preferably the HEK 293 cells, cultured on 60 mm plates at a concentration of 0.5×10^6, after at least 14 hours of growth have a 70-80% confluence. […] Extraction of the RNA from the cells is performed according to the indications contained in the QIAconnect Gene Expression (Qiagen) kit. Particularly the samples are lysed and homogenated. Ethanol is then added to the treated samples to provide ideal conditions for the bond with the silica-gel RNase membrane. In this way the RNA binds and the contaminants are washed; the pure RNA is concentrated and eluted. The concentration of the extracted RNA is determined by UV spectrophotometric method under suitable reading conditions. The reverse transcription reaction is performed with the GeneAmp RNA PCR core (Applied Biosystems) kit according to the indications provided by the manufacturer. Quantification of the reverse-transcribed product is performed using fluorescent probes capable of hybridizing and specifically pairing DNA regions of interest. The probes used according to the invention are Probe Hs 00175940_m1 and Probe Hs 99999903 ml (Applied Biosystems). Particularly the probe defined Hs 00175940_m1 represents the specific probe able to recognise and hybridize the human frataxin gene, while the probe Hs 99999903 ml recognises the human actin and is useful for normalising the mRNA values of the target. The analyzing step of the results is performed by substituting the mathematical formula 2^−ΔΔCt with the difference between the target threshold cycle in the samples treated and not treated (control) with diazoxide, normalised with the threshold cycle value of the reference gene (actin), in the case in question ΔCt=Ct Hs00175940—m1−Ct Hs99999903—m1. ΔΔCt=ΔCt(treated sample)−ΔCt(control sample) The result of the calculation 2^−ΔΔCt represents the relative quantification value. Said value permits determination of the quantity of frataxin (which represents the target) in the sample treated with diazoxide with respect to the quantity of frataxin in the sample not treated with diazoxide (which represents the control) normalised for the quantity of actin (which represents the reference or internal standard) in the same sample. For example a value of 1 is attributed to the control samples, i.e. HEK 293 cells not treated with diazoxide chosen as references.

frataxin [2] = experiment: Western blot analysis of frataxin in HEK 293 cells; format: cell-based, human; conditions: for frataxin expression, western blot: 4 or 5 days after the initial treatment
Experimental: The human cell line HEK 293 (Human Embryonic Kidney) grown in Dulbecco's modified Eagle's medium (DMEM, Sigma) with the addition of 10% foetal bovine serum (FBS) (v/v), glutamine 2 mM, penicillin 100 unit/ml and streptomycin 100 μg/ml is kept in an incubator at a temperature of 37° C. and 5% CO2. Preferably the HEK 293 cells, cultured on 60 mm plates at a concentration of 0.5×10^6, after at least 14 hours of growth have a 70-80% confluence. […] The cells treated as described in example 1 are lysed with a lysis buffer (0.15 M NaCl, 5 mM EDTA, pH 8, 1% Triton X100, 10 mM Tris-Cl, pH 7.4) and transferred to microcentrifuge tubes. A quantity of approximately 50 μg of cell suspension is separated by electrophoresis in the presence of SDS (sodium dodecyl sulphate) at 17% (denaturing conditions). The resulting product is transferred onto nitrocellulose membranes. Identification of the presence of the target protein, i.e. the frataxin, is performed with a rabbit polyclonal primary antibody directed against said protein (Santa Cruz Biotechnology), and a goat-anti rabbit HRP secondary antibody (Pierce). The reaction was identified with enzymatic method by means of ECL plus system (Amersham).

frataxin [3] = experiment: Quantitative real-time RT-PCR of frataxin expression in immortalized lymphoblastoid cell lines of FRDA patients; format: cell-based, human; conditions: FRDA patient lymphoblastoid cells, 24 hours
Experimental: Extraction of the RNA from the cells is performed according to the indications contained in the QIAconnect Gene Expression (Qiagen) kit. Particularly the samples are lysed and homogenated. Ethanol is then added to the treated samples to provide ideal conditions for the bond with the silica-gel RNase membrane. In this way the RNA binds and the contaminants are washed; the pure RNA is concentrated and eluted. The concentration of the extracted RNA is determined by UV spectrophotometric method under suitable reading conditions. The reverse transcription reaction is performed with the GeneAmp RNA PCR core (Applied Biosystems) kit according to the indications provided by the manufacturer. Quantification of the reverse-transcribed product is performed using fluorescent probes capable of hybridizing and specifically pairing DNA regions of interest. The probes used according to the invention are Probe Hs 00175940_m1 and Probe Hs 99999903 ml (Applied Biosystems). Particularly the probe defined Hs 00175940_m1 represents the specific probe able to recognise and hybridize the human frataxin gene, while the probe Hs 99999903 ml recognises the human actin and is useful for normalising the mRNA values of the target. The analyzing step of the results is performed by substituting the mathematical formula 2^−ΔΔCt with the difference between the target threshold cycle in the samples treated and not treated (control) with diazoxide, normalised with the threshold cycle value of the reference gene (actin), in the case in question ΔCt=Ct Hs00175940—m1−Ct Hs99999903—m1. ΔΔCt=ΔCt(treated sample)−ΔCt(control sample) The result of the calculation 2^−ΔΔCt represents the relative quantification value. Said value permits determination of the quantity of frataxin (which represents the target) in the sample treated with diazoxide with respect to the quantity of frataxin in the sample not treated with diazoxide (which represents the control) normalised for the quantity of actin (which represents the reference or internal standard) in the same sample. The expression level and therefore the quantity of frataxin of cells deriving from immortalized lymphoblastoid cell lines of FRDA patients treated as described in examples 2 and 3 was compared 24 hours after the treatment. […] In particular, the broken vertical line represents the threshold value above which the increase in frataxin expression can be seen. The experiment was conducted testing the cells with concentrations of diazoxide varying from 25 nM to 100 μM in combination with fixed concentrations of glucose 20 mM. The expression and therefore the quantity of frataxin in cells deriving from immortalized lymphoblastoid cell lines of FRDA patients was compared.

frataxin [4] = experiment: Western blot analysis of frataxin in cells of FRDA patients; format: cell-based, human; conditions: FRDA patient cells, 24 hours after the initial treatment
Experimental: The cells treated as described in example 1 are lysed with a lysis buffer (0.15 M NaCl, 5 mM EDTA, pH 8, 1% Triton X100, 10 mM Tris-Cl, pH 7.4) and transferred to microcentrifuge tubes. A quantity of approximately 50 μg of cell suspension is separated by electrophoresis in the presence of SDS (sodium dodecyl sulphate) at 17% (denaturing conditions). The resulting product is transferred onto nitrocellulose membranes. Identification of the presence of the target protein, i.e. the frataxin, is performed with a rabbit polyclonal primary antibody directed against said protein (Santa Cruz Biotechnology), and a goat-anti rabbit HRP secondary antibody (Pierce). The reaction was identified with enzymatic method by means of ECL plus system (Amersham). […] It can be seen that the cells of the patients treated according to the invention present an evident band as expression of the quantity of frataxin present with respect to the non-treated control.

[5] = children treated with ibedenone; cited from earlier work
[6] = diazoxide in combination with glucose
[7] = diazoxide in combination with leucine

CC1=NS(=O)(=O)c2cc(Cl)ccc2N1 [diazoxide, 7-chloro-3-methyl-4H-1,2,4 benzothiadiazine 1,1-dioxide]
frataxin expression levels, deviation from the threshold line (frataxin [1]; HEK 293, diazoxide 100 μM combined with leucine 10 mM, 24 hours): significant deviation from the threshold line | increase in the quantity of frataxin with respect to the non-treated control over time (frataxin [1]; HEK 293, diazoxide 100 μM together with glucose 20 mM, 48 and 72 hours after the treatment): remains constant | quantity of frataxin / frataxin expression with respect to the non-treated control (frataxin [1]; HEK 293, diazoxide 100 μM with glucose 20 mM, 24 hours): increased quantity of frataxin; also recorded: significant deviation from the threshold line | frataxin expression levels, deviation from the threshold line (frataxin [1]; HEK 293, diazoxide only (25 nM or 100 μM without glucose), 24 hours): minimum deviation from the threshold line | frataxin quantity (band intensity) versus control cells (frataxin [2]; HEK 293, cells treated as in example 1 (diazoxide 100 μM with glucose 20 mM, 24 hours)): greater than that of the control cells | frataxin expression, western blot (frataxin [2]; [6]): maintain the increase in expression | frataxin expression, western blot (frataxin [2]; [7]): maintain the increase in expression | frataxin expression levels, deviation from the threshold line (frataxin [3]; diazoxide 100 μM combined with glucose 20 mM): significant deviation from the threshold line | effect on frataxin expression of the combination (frataxin [3]; [6]): synergic effect | effect on frataxin expression of the combination (frataxin [3]; [7]): synergic effect | frataxin expression levels, deviation from the threshold line (frataxin [3]; some particular concentrations of diazoxide (25 nM to 100 μM tested) with glucose 20 mM): minimum deviation from the threshold line | frataxin expression, western blot, with respect to the non-treated control (frataxin [4]; [6]): maintain the increase in expression | frataxin expression, western blot, with respect to the non-treated control (frataxin [4]; [7]): maintain the increase in expression

COC1=C(OC)C(=O)C(CCCCCCCCCCO)=C(C)C1=O [ibedenone]
benefits at neurological level [5]: practically nil | children treated presenting an improvement in some of the symptoms [5]: 85%

CC(C)C[C@H](N)C(=O)O [leucine]
frataxin expression levels, deviation with respect to the non-treated control (frataxin [1]; HEK 293, leucine only 10 mM, 24 hours): minimum deviation with respect to the non-treated control
